The text below walks through data of PMC11696749, “Deep Multitask Learning-Driven Discovery of New Compounds Targeting Leishmania infantum” (ACS Omega, 2024).

Like-named read-outs stand apart in the source and are kept apart here.

The subject of data set [1] is L. donovani. Set-up: method as in ref 44 (Khare et al.). The following applies: Figure 10; ref 44 (Khare et al.); cited from earlier work.
Data set [2] concerns L. infantum (MHOM/BR/2002/LPC-RPV) promastigotes. Nature of the data set: In vitro antileishmanial activity against promastigotes (resazurin). To be noted: 48 h at 28 °C, three independent experiments. Type of data set: cell-based, Leishmania infantum. As for the experimental part:
(§1) L. infantum (MHOM/BR/2002/LPC-RPV) promastigotes were maintained in Schneider’s medium supplemented with 10% (v/v) fetal bovine serum (FBS, Gibco) and 100 U/mL penicillin and 100 μg/mL streptomycin at 28 °C. MRC-5 human primary fetal lung fibroblast cells were maintained in RPMI 1640 medium supplemented with 10% heat-inactivated fetal calf serum (FCS) and 25 mM HEPES under a 5% CO2 atmosphere at 37 °C and pH 7.4.
To evaluate the effect of prioritized compounds on parasite viability, 4 × 10^6 promastigotes/mL were incubated in the presence of a series of 11 points from 200–0.195 or 50–0.04 μM plus control (0.1% DMSO) for 48 h at 28 °C to a final volume of 200 μL in 96-well microplate. Next, 20 μL of resazurin solution (0.39 mM) was added to each well and incubated for 4 h, and then fluorescence was recorded (570 nmex/595 nmem) on a microplate reader SpectraMax M5 (Molecular Devices, Sunnyvale, CA). The IC50 from three independent experiments was calculated from the dose–response curve fitted in a four-parameter logistic, nonlinear regression model using GraphPad Prism software (CA) v.8.
Background: Resazurin is reduced to fluorescent resorufin, in cell work by metabolically active cells.

Data set [3] in a line: In vitro cytotoxicity test on MRC-5 cells (resazurin). Format: cell-based, human. The following applies: human, MRC-5 primary fetal lung fibroblast cells, pH 7.4, MRC-5 cells, 72 h incubation, resazurin; two independent experiments. As for the experimental part:
as §1
(§2) MRC-5 cells were seeded in 96-well plates at a density of 1 × 10^4 cells/well using 100 μL of medium. After 24 h, compounds were serially diluted in another set of 96-well plates starting from a concentration of 250 μM (11 dilution points plus the control), using 100 μL of complete culture medium per well. Subsequently, 100 μL of these diluted compounds were transferred to the seeded cells. Amphotericin B (Sigma-Aldrich) dissolved in DMSO was used as a control and diluted from an initial concentration of 0.5 μM. After 72 h of incubation, resazurin was added to a final concentration of 45 μM and incubated for 4 h before measuring fluorescence.

In another data set the test system is macrophage. Also on record: method as in ref 44 (Khare et al.). To be noted: Figure 10; ref 44 (Khare et al.); cited from earlier work.
Another data set concerns 3T3. Also on record: method as in ref 44 (Khare et al.). To be noted: Figure 10; ref 44 (Khare et al.); cited from earlier work.
The subject of a further data set is THP-1. Also on record: method as in ref 45 (Wyllie et al.). To be noted: Figure 10; ref 45 (Wyllie et al.); cited from earlier work.
Data set [4] deals with L. donovani. Set-up: method as in ref 45 (Wyllie et al.). The following applies: Figure 10; ref 45 (Wyllie et al.); cited from earlier work.
The test system of data set [5] is MRC-5 human primary fetal lung fibroblast cells. In words: In vitro cytotoxicity test on MRC-5 cells (resazurin). Format: cell-based. To be noted: for SI (selectivity index): ratio of CC50 (MRC-5) to IC50 (L. infantum). As for the experimental part: as §1, §2

Usually IC50 stands for the concentration that gives 50% inhibition. For the compound `Cc1nc(C)c(C(=O)Nc2ccc(F)c(-c3nc4ncc(-c5ccccn5)cn4n3)c2)o1` [GNF6702], the IC50 in the data set on L. donovani [1] was 0.0018 µM.
`Cc1cc(NCc2ccncc2C)nc(N2CCCCC2)n1` [LC-20] yielded an IC50 in data set [2] (Leishmania infantum, 48 h) of over 100 µM.
Compound `Cc1nc(O)cc(C2CCN(c3nccc(-c4ccccn4)n3)CC2)n1` [LC-27] came in with an IC50 in data set [2] (Leishmania infantum, 48 h) of over 100 µM.
`CN1CCC(Nc2nccc(-c3ccccn3)n2)C(Cc2ccccc2)C1` (centres unmarked) [LC-26]: the IC50 in data set [2] (Leishmania infantum, 48 h) was 11.9 ± 1.7 µM. Besides, the CC50 at 72 h in data set [3] was 48.4 ± 16.9 µM.
With `CC(C)OC(=O)Nc1cnc2nc(-c3cc(NC(=O)c4ccco4)ccc3Cl)cn2c1` [GNF2636], the 50% inhibitory concentration (IC50) in the data set on L. donovani [1] is 0.35 µM. The CC50 in the data set with macrophage is 14.1 µM; in the data set on 3T3, 3.5 µM.
In data set [2] (Leishmania infantum, 48 h), `O=C(Nc1cccnc1Cl)c1cc(-c2ccc3c(c2)OCO3)on1` [LC-36] came in with an IC50 of over 100 µM.
In the case of `O=C(Nc1ccc(F)c(-c2cn3cc(-c4ccccc4)cnc3n2)c1)N1CCCC1` [compound 6], in the data set on THP-1, the CC50 is over 50 µM. For the same compound, in the data set on L. donovani [4], the IC50 was 0.15 µM.
Take `Cc1nc(C)c(C(=O)Nc2ccc(F)c(-c3nc4ncc(-c5ccccc5)cn4n3)c2)o1` [GNF3849]: the IC50 in the data set on L. donovani [1] is 0.071 µM.
Regarding `O=C(Nc1ccc(F)c(-c2cn3nc(-c4ccccc4)cnc3n2)c1)N1CCCC1` [compound 7], the CC50 with THP-1 is over 50 µM. The IC50 with L. donovani [4] was 0.35 µM.
For the compound `Cc1cc(C)nc(-n2nc(C)c3c2NC(=O)CC3c2ccc3c(c2)OCO3)n1` (centres unmarked) [LC-35], inhibition in data set [2] (Leishmania infantum, 48 h) was half-maximal at 17.1 ± 2.89 µM (IC50). For the same compound, the “SI (selectivity index)” value in data set [5] came out at 8.47. Further, the CC50 at 72 h in data set [3] amounted to 145 ± 21.8 µM.
Take `Fc1ccc(OCc2nc3cc(Cl)ccc3[nH]2)cc1` [LC-31]: the IC50 in data set [2] (Leishmania infantum, 48 h) was determined as 4.51 ± 2.25 µM. In data set [5], the “SI (selectivity index)” value is 9.04. Further, the CC50 at 72 h in data set [3] stood at 40.7 ± 4.33 µM.
For `C[C@@H]1[C@H](O)[C@@H](C)/C=C/C=C/C=C/C=C/C=C/C=C/C=C/[C@H](O[C@@H]2O[C@H](C)[C@@H](O)[C@H](N)[C@@H]2O)C[C@@H]2O[C@](O)(C[C@@H](O)C[C@@H](O)[C@H](O)CC[C@@H](O)C[C@@H](O)CC(=O)O[C@H]1C)C[C@H](O)[C@H]2C(=O)O` [Amphotericin B, reference compound], the half-maximal inhibitory concentration (IC50) in data set [2] (Leishmania infantum, 48 h) was determined as 0.079 ± 0.001 µM. Moreover, the CC50 at 72 h in data set [3] is over 0.67 µM.
`CC(=O)Nc1ccc(S(=O)(=O)Nc2cc(C)nn2-c2ccccn2)cc1` [LC-38] showed an IC50 in data set [2] (Leishmania infantum, 48 h) of over 100 µM.
For `O=C(Nc1ccc(Cl)c(-c2nc3ncccc3o2)c1)c1cccs1` [LC-15], the IC50 in data set [2] came out at 1.05 ± 0.37 µM; in data set [2] (Leishmania infantum, 48 h), 1.5 µM. The compound also registered a CC50 in data set [5] (MRC-5 cells, 72 h incubation, resazurin, two independent experiments) of 32.4 ± 8.31 µM. In addition, the “SI (selectivity index)” value in data set [5] was determined as 30.9. The compound further had a CC50 at 72 h in data set [3] of over 32.4 µM.
In data set [2] (Leishmania infantum, 48 h), `Cc1nc2ccc(Cl)cn2c1C(=O)N1CCCC1c1ccccn1` (centres unmarked) [LC-25] gave an IC50 of over 100 µM.
Consider `Cc1ccc(C2CC(=O)Nc3c2c(C)nn3-c2nc(C)cc(C)n2)cc1` (centres unmarked) [LC-37], for which the IC50 in data set [2] (Leishmania infantum, 48 h) came out at 15.6 ± 2.36 µM. In addition, the “SI (selectivity index)” value in data set [5] is on record as over 15.9. The same compound showed a CC50 at 72 h in data set [3] of over 250 µM.
